Experimental data: ChEMBL document CHEMBL3785081 (J Med Chem, 2016)

Experiments:
[1] = Lipophilicity, log D of the compound at pH 7.4; format: physicochemical; details: buffer
[2] = system: Liver microsome; experiment: Intrinsic clearance in human liver microsomes; format: ADME

Row | SMILES | logD [1] | CLint [2]
1 | C#CCOc1cc2ncnc(Nc3ccc(F)c(Cl)c3)c2cc1NC(=O)C=C | 4 | 
2 | C=CC(=O)N1CC[C@@H](COc2nc(Nc3cnn(C)c3)nc3[nH]ccc23)C1 | 2.1 | 56 µL/min/g
3 | C=CC(=O)N1C[C@H](COc2nc(Nc3cnn(C)c3)nc3[nH]cc(Cl)c23)[C@@H](O)C1 | 2 | 12 µL/min/g
4 | C=CC(=O)N1C[C@H](COc2nc(Nc3cnn(C)c3)nc3[nH]cc(Cl)c23)[C@@H](F)C1 | 2.7 | 28 µL/min/g
5 | C=CC(=O)Nc1cccc(Oc2nc(Nc3ccc(N4CCN(C)CC4)cc3)nc3[nH]ccc23)c1 | 2.7 | 20 µL/min/g
6 | C=CC(=O)N1C[C@H](COc2nc(Nc3cnn(C)c3)nc3[nH]cc(Cl)c23)[C@@H](OC)C1 [PF-06459988] | 2.5 | 18 µL/min/g
7 | C=CC(=O)N1C[C@H](COC)[C@@H](COc2nc(Nc3cnn(C)c3)nc3[nH]cc(Cl)c23)C1 | 2.9 | 23 µL/min/g
8 | C=CC(=O)N1C[C@H](COc2nc(Nc3cnn(C)c3)nc3[nH]cc(Cl)c23)[C@@H](C(F)(F)F)C1 | 3 | 37 µL/min/g
9 | C=CC(=O)N1CC[C@@H](COc2nc(Nc3cnn(C)c3)nc3[nH]cc(Cl)c23)C1 | 2.91 | 45 µL/min/g
10 | C#CCCn1cc(Nc2nc(OC[C@H]3CN(C(=O)C=C)C[C@@H]3OC)c3c(Cl)c[nH]c3n2)cn1 | 3 | 
11 | C=CC(=O)N1C[C@@H](COc2nc(Nc3cnn(C)c3)nc3[nH]cc(Cl)c23)[C@H](OC)C1 | 2.4 | 24 µL/min/g
12 | C=CC(=O)N1C[C@H](CO)[C@@H](COc2nc(Nc3cnn(C)c3)nc3[nH]cc(Cl)c23)C1 | 2.3 | 13 µL/min/g
13 | C=CC(=O)N1C[C@H](COc2nc(Nc3cnn(C)c3)nc3[nH]ccc23)[C@@H](C(F)(F)F)C1 | 2.7 | 26 µL/min/g
14 | C=CC(=O)Nc1cccc(Oc2nc(Nc3cnn(C)c3)nc3[nH]ccc23)c1 | 3.2 | 66 µL/min/g
15 | C=CC(=O)Nc1cccc(Oc2nc(Nc3ccn(C)n3)nc3[nH]ccc23)c1 | 3 | 11 µL/min/g
